This is an account of results in patent US9839642B2, “Beta-tetrazolyl-propionic acids as metallo-beta-lactamase inhibitors” (priority 2014, dated 2017).

Where only a bound is given, the exact number is not on record here.

For one test, the target named is IMP-1 (Serratia marcescens, UniProt P52699). Description: Enzyme activity: determination of IC50, fluorescence assay with CCF2-FA substrate. The following applies: enzyme 2 pM, CCF2-FA 1.25 μM, 2 hours at 25° C.; read-out: IMP1 IC50. It counts as biochemical. The method, then:
(§1) Enzyme Activity: Determination of IC50
(§2) The Class B enzyme activities were measured in the presence of a compound of the EXAMPLES as a test inhibitor in a fluorescence assay against a commercially available substrate consisting of a cephalosporin core linking 7-hydroxycoumarin to fluorescein (CCF2-FA; Life Technologies, Grand Island, N.Y.). The enzyme (NDM-1, IMP-1 or VIM-1) and the substrate were diluted in 100 mM KH2PO4 buffer (pH 7) containing 0.005% Tween-20 and 10 μM ZnSO4. In the assay, the final concentration of enzyme was 1 pM, 2 pM and 30 pM for NDM-1, IMP-1 and VIM-1, respectively, and the final concentration of CCF2-FA was 1.25 μM. The test inhibitor was dissolved in DMSO and diluted 1:50 in the assay, resulting in a final concentration range of 20 μM to 0.00063 μM. In a 384-well microplate, the test inhibitor was incubated with the metallo-β-lactamase enzyme and the substrate for 2 hours at 25° C. Fluorescence at 460 nm following excitation at 405 nm was measured. The IC50 value was determined from semi-logarithmic plots of enzyme inhibition versus inhibitor concentration, with a curve generated using a 4-parameter fit.

The target of the next test is NDM-1 (Klebsiella pneumoniae, UniProt C7C422). Described as above. It counts as biochemical. The following applies: enzyme 1 pM, CCF2-FA 1.25 μM, 2 hours at 25° C.; read-out: NDM1 IC50. As for the experimental part: as §1, §2
NDM-1, sequence (C7C422 29-270, looked up, species assumed): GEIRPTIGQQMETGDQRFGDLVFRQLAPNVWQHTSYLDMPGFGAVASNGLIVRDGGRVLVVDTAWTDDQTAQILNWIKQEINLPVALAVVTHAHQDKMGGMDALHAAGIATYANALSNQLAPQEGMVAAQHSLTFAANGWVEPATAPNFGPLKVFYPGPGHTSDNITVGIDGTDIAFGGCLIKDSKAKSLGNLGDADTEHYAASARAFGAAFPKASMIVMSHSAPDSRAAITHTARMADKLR
Another test concerns the target VIM-1 (Pseudomonas aeruginosa, UniProt A0A0F7KYQ8). Described as above. It counts as biochemical. The following applies: enzyme 30 pM, CCF2-FA 1.25 μM, 2 hours at 25° C.; read-out: VIM1 IC50. The method, then: as §1, §2
In test [1] the test system is Klebsiella pneumoniae expressing VIM-1 (IHMA599644). Description: Antibiotic potentiation activity: synergistic concentration (MITC95) with imipenem, growth by OD600. The following applies: 95% inhibition of bacterial growth, strain IHMA599644. The format is cell-based. As for the experimental part: (§3) Antibiotic Potentiation Activity: Determination of Synergistic Concentration
(§4) The bacterial strains tested included the clinical strains Escherichia coli expressing NDM-1 (CLB30005, CLB30016), Serratia marcescens expressing IMP-1 (CL5741), and Klebsiella pneumoniae expressing VIM-1 (IHMA599644). Inhibitor activity was measured in the presence and absence of imipenem or ceftazidime in a 384-well microplate.
(§5) The clinical strains CLB30016, CL5741, and IHMA599644 were grown on trypticase soy agar containing 5% sheep's blood. The clinical strain CLB30005 was grown on Mueller Hinton broth agar containing 8 μg/ml imipenem. The bacteria on agar plates were incubated overnight at 35° C. with ambient humidity (achieved from an open pan of water inside the incubator). The following day, individual colonies from each clinical strain were picked and resuspended in 5 ml saline to attain an OD600 of 0.14, 0.11, 0.15 and 0.13, for CLB30005, CLB30016, CL5741 and IHMA599644, respectively. These were further diluted 1:100 into 1.1×CAMHB and used to inoculate the test wells as described below.
(§6) Imipenem in 10 mM 3-(N-morpholino)propanesulfonic acid (MOPS, pH 7) was stored in single use aliquots at −80° C. Test inhibitors were dissolved in DMSO and diluted 1:50 in the assay, resulting in a final concentration range of 200 μM to 0.195 μM. On the day of the assay, 4 μl of antibiotic was added to 45 μl of bacteria followed by 1 μl of test compound and mixed by pipetting and with an orbital shaker. The concentration of antibiotic used in the assay was 1 μg/ml or 4 μg/ml. Microplates were covered and incubated at 35° C. for 22 hours to 24 hours. At the end of the incubation, absorbance was determined using a spectrophotometer. The synergistic concentration of MBLI was determined by identifying the lowest concentration of test compound in the presence of a given concentration of antibiotic that was required to inhibit 95% of the growth of the bacteria.
(§7) Representative compounds of the present invention display a synergistic effect. For example, representative compounds of EXAMPLES 1-456 were determined to restore susceptibility to imipenem at concentrations of 200 μM or less.

Test [2] concerns Serratia marcescens expressing IMP-1 (CL5741). Described as above. The following applies: 95% inhibition of bacterial growth, strain CL5741. It counts as cell-based. The method, then:
as §3, §4, §5, §6, §7

In test [3] the test system is Escherichia coli expressing NDM-1 (CLB30016). Described as above. It counts as cell-based. The following applies: 95% inhibition of bacterial growth, strain CLB30016. The method, then: as §3, §4, §5, §6, §7

IMP-1, sequence (P52699 19-246, looked up, species assumed): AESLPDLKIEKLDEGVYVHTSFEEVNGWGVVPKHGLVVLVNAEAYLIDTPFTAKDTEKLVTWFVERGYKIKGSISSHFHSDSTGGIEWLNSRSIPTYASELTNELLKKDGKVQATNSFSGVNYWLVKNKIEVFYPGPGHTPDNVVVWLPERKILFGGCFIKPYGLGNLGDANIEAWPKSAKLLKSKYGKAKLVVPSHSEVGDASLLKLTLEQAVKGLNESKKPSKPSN

What is called IC50 is the midpoint of a concentration-inhibition curve. For `CCC[C@H](C(=O)O)[C@H](Cc1ccc(CN)cc1)c1nnn[nH]1` [Example 54, (S)-2-((S)-2-(4-(aminomethyl)phenyl)-1-(1H-tetrazol-5-yl)ethyl)pentanoic acid], the figures for the IC50 on IMP-1, at NDM-1 and on VIM-1 were 13000 nM, 1600 nM and 40 nM, respectively. Further, the “VIM1 KP599644 MITC95” value in test [1] stood at 12.5 µM. Also, the “IMP1 SM5741 MITC95” value in test [2] is 75 µM. Moreover, the “NDM1 EC30016 MITC95” value in test [3] turned out to be 18.8 µM.
For `CCC[C@H](C(=O)O)[C@H](Cc1ccc(CN2CCNCC2)cc1)c1nnn[nH]1` [Example 55, (S)-2-((S)-2-(4-(piperazin-1-ylmethyl)phenyl)-1-(1H-tetrazol-5-yl)ethyl)pentanoic acid], the half-maximal inhibitory concentration (IC50) at IMP-1 was 810 nM; on NDM-1 it was 120 nM; on VIM-1, 19 nM. Also, in test [1], the “VIM1 KP599644 MITC95” value came to 25 µM. In addition, the “IMP1 SM5741 MITC95” value in test [2] worked out at 18.8 µM. Moreover, in test [3], the “NDM1 EC30016 MITC95” value is 6.2 µM.
Regarding `CC(C)C[C@H](C(=O)O)[C@H](Cc1ccc(CN)c(F)c1)c1nnn[nH]1` [Example 56, (S)-2-((S)-2-(4-(aminomethyl)-3-fluorophenyl)-1-(1H-tetrazol-5-yl)ethyl)-4-methylpentanoic acid], the IC50 was 1700 nM at IMP-1, 520 nM on NDM-1 and 10 nM at VIM-1. Moreover, the “VIM1 KP599644 MITC95” value in test [1] stood at 18.8 µM. Further, in test [2], the “IMP1 SM5741 MITC95” value amounted to 47 µM. Moreover, in test [3], the “NDM1 EC30016 MITC95” value was determined as 9.4 µM.
For the compound `CCC[C@@H](C(=O)O)[C@H](Cc1ccc(-c2ccc(N3CCNCC3)nc2)cc1)c1nnn[nH]1` [Example 57, (2R)-2-[(1S)-2-[4-(6-piperazin-1-ylpyridin-3-yl)phenyl]-1-(1H-tetrazol-5-yl)ethyl]pentanoic acid], the concentration for half-maximal inhibition (IC50) came to 2800 nM on IMP-1, 650 nM at NDM-1 and 170 nM at VIM-1. Further, the “VIM1 KP599644 MITC95” value in test [1] is >200 µM. Further, the “IMP1 SM5741 MITC95” value in test [2] turned out to be 150 µM. Moreover, in test [3], the “NDM1 EC30016 MITC95” value is 200 µM.
Regarding `CC(C)[C@H](C(=O)O)[C@H](Cc1ccc(C2=CCNC2)cc1)c1nnn[nH]1` [Example 60, (2S,3S)-4-(4-(2,5-dihydro-1H-pyrrol-3-yl)phenyl)-2-isopropyl-3-(1H-tetrazol-5-yl)butanoic acid], the IC50 at IMP-1 came out at 760 nM; at NDM-1, 56 nM; at VIM-1, 1.9 nM. In addition, in test [1], the “VIM1 KP599644 MITC95” value stood at 4.7 µM. In addition, in test [2], the “IMP1 SM5741 MITC95” value worked out at 9.4 µM. The “NDM1 EC30016 MITC95” value in test [3] was determined as 3.1 µM.
Take `O=C(O)[C@@H](C1CCCC1)[C@H](Cc1ccc(C2=CCNC2)cc1)c1nnn[nH]1` [Example 61, (2S,3S)-2-cyclopentyl-4-(4-(2,5-dihydro-1H-pyrrol-3-yl)phenyl)-3-(1H-tetrazol-5-yl)butanoic acid]: the IC50 on IMP-1 amounted to 150 nM; at NDM-1, 32 nM; at VIM-1 it was 1.9 nM. Moreover, the “VIM1 KP599644 MITC95” value in test [1] amounted to 6.2 µM. The “IMP1 SM5741 MITC95” value in test [2] came out at 3.9 µM. Moreover, the “NDM1 EC30016 MITC95” value in test [3] amounted to 2.3 µM.
For the compound `CC(C)[C@H](C(=O)O)[C@H](Cc1ccc(-c2cn[nH]c2)cc1)c1nnn[nH]1` [Example 62, (2S,3S)-4-(4-(1H-pyrazol-4-yl)phenyl)-2-isopropyl-3-(1H-tetrazol-5-yl)butanoic acid], the IC50 at IMP-1 came out at 66 nM; on NDM-1, 6.5 nM; at VIM-1, 6.9 nM. Also, the “VIM1 KP599644 MITC95” value in test [1] is 18.8 µM. For the same compound, the “IMP1 SM5741 MITC95” value in test [2] turned out to be 6.2 µM. For the same compound, the “NDM1 EC30016 MITC95” value in test [3] worked out at 9.4 µM.
Regarding `O=C(O)[C@@H](C1CCCC1)[C@H](Cc1ccc(-c2cn[nH]c2)cc1)c1nnn[nH]1` [Example 63, (2S,3S)-4-(4-(1H-pyrazol-4-yl)phenyl)-2-cyclopentyl-3-(1H-tetrazol-5-yl)butanoic acid], the figures for the concentration for half-maximal inhibition (IC50) at IMP-1, on NDM-1 and on VIM-1 were 25 nM, 4.5 nM and 1.1 nM, respectively. In addition, the “VIM1 KP599644 MITC95” value in test [1] was 18.8 µM. Moreover, in test [2], the “IMP1 SM5741 MITC95” value turned out to be 2.0 µM. For the same compound, the “NDM1 EC30016 MITC95” value in test [3] was 6.2 µM.
On to `CC(C)[C@H](C(=O)O)[C@H](Cc1ccc(C2=CCNC2)nc1)c1nnn[nH]1` [Example 64, (2S,3S)-4-(6-(2,5-dihydro-1H-pyrrol-3-yl)pyridin-3-yl)-2-isopropyl-3-(1H-tetrazol-5-yl)butanoic acid], for which the values for the 50% inhibitory concentration (IC50) at IMP-1, at NDM-1 and at VIM-1 were 12000 nM, 300 nM and 8.4 nM, respectively. In test [1], the “VIM1 KP599644 MITC95” value came out at 12.5 µM. In test [2], the “IMP1 SM5741 MITC95” value was found to be 50 µM. Further, the “NDM1 EC30016 MITC95” value in test [3] stood at 6.2 µM.
As for `CC(C)[C@H](C(=O)O)[C@H](Cc1ccc(C2=CCNC2)cn1)c1nnn[nH]1` [Example 65, (2S,3S)-4-(5-(2,5-dihydro-1H-pyrrol-3-yl)pyridin-2-yl)-2-isopropyl-3-(1H-tetrazol-5-yl)butanoic acid], the half-maximal inhibitory concentration (IC50) at IMP-1 was > 20000 nM; at NDM-1, 760 nM; at VIM-1 it was 72 nM. In addition, the “VIM1 KP599644 MITC95” value in test [1] is 12.5 µM. The “IMP1 SM5741 MITC95” value in test [2] stood at 200 µM. In addition, in test [3], the “NDM1 EC30016 MITC95” value worked out at 3.1 µM.
`O=C(O)[C@@H](C1CCCC1)[C@H](Cc1ccc(C2=CCNC2)cn1)c1nnn[nH]1` [Example 66, (2S,3S)-2-cyclopentyl-4-(5-(2,5-dihydro-1H-pyrrol-3-yl)pyridin-2-yl)-3-(1H-tetrazol-5-yl)butanoic acid]: the IC50 on IMP-1 came out at 6400 nM; at NDM-1, 370 nM; at VIM-1, 18 nM. In addition, the “VIM1 KP599644 MITC95” value in test [1] came out at 12.5 µM. Besides, the “IMP1 SM5741 MITC95” value in test [2] was found to be 75 µM. Moreover, in test [3], the “NDM1 EC30016 MITC95” value was 4.7 µM.
For `O=C(O)[C@@H](C1CCOC1)[C@H](Cc1ccc(C2=CCNC2)cc1)c1nnn[nH]1` (stereo partly drawn) [Example 67, (2R,3S)-4-(4-(2,5-dihydro-1H-pyrrol-3-yl)phenyl)-2-(tetrahydrofuran-3-yl)-3-(1H-tetrazol-5-yl)butanoic acid], the IC50 on IMP-1 amounted to 12000 nM; at NDM-1 it was 890 nM; on VIM-1 it was 25 nM. In test [1], the “VIM1 KP599644 MITC95” value worked out at 25 µM. Further, in test [2], the “IMP1 SM5741 MITC95” value turned out to be 50 µM. Further, the “NDM1 EC30016 MITC95” value in test [3] was determined as 12.5 µM.
`Cc1cc(C[C@H](c2nnn[nH]2)[C@@H](C(=O)O)C(C)C)ccc1C1=CCNC1` [Example 68, (2S,3S)-4-(4-(2,5-dihydro-1H-pyrrol-3-yl)-3-methylphenyl)-2-isopropyl-3-(1H-tetrazol-5-yl)butanoic acid]: the IC50 stood at 1100 nM at IMP-1, 24 nM on NDM-1 and 0.79 nM at VIM-1. Besides, the “VIM1 KP599644 MITC95” value in test [1] was found to be 6.2 µM. Moreover, the “IMP1 SM5741 MITC95” value in test [2] came out at 12.5 µM. Further, the “NDM1 EC30016 MITC95” value in test [3] is 4.7 µM.
For the compound `CC(C)[C@H](C(=O)O)[C@H](Cc1ccc(C2=CCNC2)c(F)c1)c1nnn[nH]1` [Example 69, (2S,3S)-4-(4-(2,5-dihydro-1H-pyrrol-3-yl)-3-fluorophenyl)-2-isopropyl-3-(1H-tetrazol-5-yl)butanoic acid], the IC50 on IMP-1 was 770 nM; at NDM-1, 25 nM; on VIM-1, 1.3 nM. Besides, the “VIM1 KP599644 MITC95” value in test [1] was 6.2 µM. The “IMP1 SM5741 MITC95” value in test [2] was found to be 6.2 µM. Besides, the “NDM1 EC30016 MITC95” value in test [3] was found to be 3.1 µM.
